Assay results from patent publication US20180318275A1, “COMBINATION THERAPY USING PI3K INHIBITOR AND MDM2 INHIBITOR” (Novartis AG, priority 2015, published 2018).

How the values were obtained:
Format in all cases: cell-based
[1] = system: 5 TP53 wild type colorectal cancer cell lines; assay: Cell proliferation over the cell line panel, Example 3; details: Example 3, panel of 5 lines, 13 nM-10 μM
Method: To test the effect of the combination of COMPOUND A, COMPOUND B, and COMPOUND C on cell proliferation cells were plated in black 384-well microplates with clear bottom (Matrix/Thermo Scientific, Catalog number 4332) in 50 μL media per well at cell densities between 500 and 1250 cells/well (Table 1 above) and allowed to incubate at 37 degrees, 5% CO2 for 24 h. After 24 h one 384-well plate per cell line was prepared for cell counting by microscopy (see below) without receiving treatment (=‘baseline’). The other cell plates were treated by transferring 25 nL of the 2000× compound from drug master plates using an ATS acoustic liquid dispenser (ECD Biosystems) and resulting in a final 1× concentration. COMPOUND A was used over a final concentration range of 13 nM-10 μM, COMPOUND B was used over a final concentration range of 13 nM-10 μM, and COMPOUND C was used over a final concentration range of 13 nM-10 μM (7 1:3 dilution steps). In order to assess the effect of the triple combination all individual COMPOUNDS (A, B, C), all three pair wise combinations (A+B, A+C, B+C), and the triple combination (A+B+C) were tested in the same experiment. […] Caspase 3/7 induction was measured as a proxy for apoptosis induced by the treatments. Cells were treated for 72 h to 96 h depending on their doubling time (Table 1), and Caspase 3/7 activation was measured every 24 h by microscopy using an InCell Analyzer 2000 (GE Healthcare) equipped with a 4× objective and FITC excitation/emission filters. […] All cells per well/treatment were captured in a single image by fluorescence microscopy using an InCell Analyzer 2000 (GE Healthcare) equipped with a 4× objective and DAPI excitation/emission filters.
Images were analyzed after adapting previously described methods (Horn, Sandmann et al. 2011, Nat. Methods 8(4): 341-346) and using the Bioconductor package EBImage in R (Pau, Fuchs et al. 2010, Bioinformatics 26(7):979-981). Objects in both channels, DAPI (for Hoechst/DNA) and FITC (for Caspase 3/7), were segmented separately by adaptive thresholding and counted. […]

HCT-116 = assay: Cell proliferation (cell count by microscopy), Example 3; details: Homo sapiens; HCT-116, single agent, 72 h, cell count relative to DMSO
Method: (§1) COMPOUNDS A, B and C were dissolved in 100% DMSO (Sigma, Catalog number D2650) at concentrations of 20 mM and stored at −20° C. until use. Compounds were arrayed in drug master plates (Greiner, Catalog number 788876) and serially diluted 3-fold (7 steps) at 2000× concentration.
(§2) To test the effect of the combination of COMPOUND A, COMPOUND B, and COMPOUND C on cell proliferation cells were plated in black 384-well microplates with clear bottom (Matrix/Thermo Scientific, Catalog number 4332) in 50 μL media per well at cell densities between 500 and 1250 cells/well (Table 1 above) and allowed to incubate at 37 degrees, 5% CO2 for 24 h. After 24 h one 384-well plate per cell line was prepared for cell counting by microscopy (see below) without receiving treatment (=‘baseline’). The other cell plates were treated by transferring 25 nL of the 2000× compound from drug master plates using an ATS acoustic liquid dispenser (ECD Biosystems) and resulting in a final 1× concentration. COMPOUND A was used over a final concentration range of 13 nM-10 μM, COMPOUND B was used over a final concentration range of 13 nM-10 μM, and COMPOUND C was used over a final concentration range of 13 nM-10 μM (7 1:3 dilution steps). In order to assess the effect of the triple combination all individual COMPOUNDS (A, B, C), all three pair wise combinations (A+B, A+C, B+C), and the triple combination (A+B+C) were tested in the same experiment. Pair wise combinations and the triple combination were tested at a fixed ratio of 1:1 (for drug pairs) and 1:1:1 (for the drug triple) at each dilution resulting in 7 combination conditions per treatment. […] After compound addition 50 nL of 2 mM CellEvent Caspase-3/7 Green Detection Reagent (ThermoFisher, Catalog number C10423) were added to one of the three replicates using the HP D300 Digital Dispenser (Tecan). Caspase 3/7 induction was measured as a proxy for apoptosis induced by the treatments. Cells were treated for 72 h to 96 h depending on their doubling time (Table 1), and Caspase 3/7 activation was measured every 24 h by microscopy using an InCell Analyzer 2000 (GE Healthcare) equipped with a 4× objective and FITC excitation/emission filters. At the end of the treatment cells were prepared for cell counting by microscopy. Cells were fixed and permeabilised for 45 minutes in 4% PFA (Electron Microscopy Sciences, Catalog number 15714), 0.12% TX-100 (Electron Microscopy Sciences, Catalog number 22140) in PBS (Boston Bioproducts, Catalog number BM-220). After washing cells three times with PBS their DNA was stained for 30 minutes with Hoechst 33342 (ThermoFisher, Catalog number H3570) at a final concentration of 4 μg/mL. Cells were washed three times with PBS and then plates were heat-sealed using a PlateLoc (Agilent Technologies) with aluminum seals (Agilent Technologies, Catalog number 06644-001) and stored at 4° C. until imaging. All cells per well/treatment were captured in a single image by fluorescence microscopy using an InCell Analyzer 2000 (GE Healthcare) equipped with a 4× objective and DAPI excitation/emission filters.
(§3) Images were analyzed after adapting previously described methods (Horn, Sandmann et al. 2011, Nat. Methods 8(4): 341-346) and using the Bioconductor package EBImage in R (Pau, Fuchs et al. 2010, Bioinformatics 26(7):979-981). Objects in both channels, DAPI (for Hoechst/DNA) and FITC (for Caspase 3/7), were segmented separately by adaptive thresholding and counted. A threshold for Caspase 3/7 positive objects was defined manually per cell line after comparing negative controls (DMSO) and positive controls (Staurosporine). By analyzing 17 additional object/nuclei features in the DNA channel (shape and intensity features) debris/fragmented nuclei were identified. To this end per cell line the distributions of the additional features between positive controls (Staurosporine) and negative controls (DMSO) were compared manually. […]

GP2d = assay: as above; details: single agent, 72 h, cell count relative to DMSO, unit (micromolar, top dose 10 μM)
Method: as §1, §2, §3

RKO = assay: as above; details: Homo sapiens, single agent, 72 h, cell count relative to DMSO
Method: as §1, §2, §3

LoVo = assay: as above; details: Homo sapiens, single agent, 96 h, cell count relative to DMSO
Method: as §1, §2, §3

LS-180 = assay: as above; details: Homo sapiens, LS180; LS-160 (so in the source), single agent, 72 h, cell count relative to DMSO
Method: as §1, §2, §3

- IC50 (HCT-116): > 10 µM
- IC50 (LoVo): > 10 µM
SMILES: CC1(C)CCC(c2ccc(Cl)cc2)=C(CN2CCN(c3ccc(C(=O)NS(=O)(=O)c4ccc(N[C@H](CCN5CCOCC5)CSc5ccccc5)c(S(=O)(=O)C(F)(F)F)c4)cc3)CC2)C1 [COMPOUND C, 4-[4-[[2-(4-Chlorophenyl)-5,5-dimethyl-1-cyclohexen-1-yl]methyl]-1-piperazinyl]-N-[[4-[[(1R)-3-(4-morpholinyl)-1-[(phenylthio)methyl]propyl]amino]-3-[(trifluoromethyl)sulfonyl]phenyl]sulfonyl]benzamide, reference compound]
- Single agent growth inhibition, in words [1]: no single agent efficacy
- IC50 (GP2d): > 10 µM
- IC50 (RKO): > 10 µM
- IC50 (LS-180): > 10 µM
